Consider one substance from US20150080559A1, “Compositions Containing, Methods Involving, and Uses of Non-Natural Amino Acid Linked Dolastatin Derivatives” (priority 2011, published 2015).

Read-outs that look alike come from different tables or passages of the source.

The test system of one assay is SKOV-3. Nature of the assay: In vitro inhibition of proliferation assay (WST-8), SKOV-3. It is filed as cell-based. The note with it: 72 hr, read-out: IC50 Values after 72 hr drug treatment, SKOV-3. On the procedure:
(§1) At day 1, the cells were seeded. The media was aspirated and the T-225 culture flasks of cells was rinsed with 30 mL PBS −/. PBS was aspirated and 6 mL of 0.25% Trypsin-EDTA was added to each flask. The flasks were incubated at 37C, 5% CO2 for 2-5 minutes. Adherent cells were dislodged by hitting flask and trypsin was neutralized by adding 14 mL culture medium. The cell suspension was mixed and transferred to a 50 mL conical tube. The cells were spun down at 1200 rpm, 5 min, room temperature. The resultant cell pellet was resuspended in 12 mL of culture medium. The cells were counted in a hemacytometer. Cells were seeded at appropriate cell densities into 96-well flat-bottom, clear plates and incubated overnight at 37° C., 5% CO2 to allow cells to attach. Plating volume was 80 uL/well. 80 uL/well of culture medium was utilized as the “no cell” control.
(§2) Cell plating density examples include: • BT474 (high Her2)—20,000 cells/well in F12k/DMEM (50/50), 10% FBS, P/S • MDA-MB-468 (Her2 negative)—6,000 cells/well in F12k/DMEM (50/50), 10% FBS, P/S • HCC1954—5,000 cells/well in RPMI 1640, 10% FBS, P/S • SKOV-3—6,000 cells/well in RPMI 1640, 10% FBS, P/S • HT29—20,000 cells/well in McCoy's 5A, 10% FBS, P/S
(§3) At day 2, the test samples were added to the cells. The test samples were diluted in culture medium to a 9× stock concentration in Column 2 of a round-bottom 96-well plate. 3× serial dilutions were made from Column 2 to Column 11 with a multi-channel pipettor. 10 uL/well of the above samples was added in duplicate to the appropriate wells of the seeded plate. The total volume in the wells was about 90 uL/well. 10 uL/well of culture medium was added to avoid edge effects for sample wells. Media Control wells were included in the inner wells where no sample was added (just 10 uL/well of culture medium) to be used in proliferation calculations. The plates were incubated at 37° C., 5% CO2 for 72 hrs.
(§4) At day 5, proliferation readout occurred. […] The plates were measured for absorbance at OD 450 nm. […]

Another assay relates to HCC1954. Nature of the assay: In vitro inhibition of proliferation assay (WST-8), HCC1954. The note with it: 72 hr, read-out: IC50 Values after 72 hr drug treatment, HCC1954. Format: cell-based, human. On the procedure:
as §1, §2
(§5) At day 2, the test samples were added to the cells. […]
as §4
(In general: Formazan colour is commonly taken as a measure of viable cells.)

For a further assay, the system named is MDA-MB-468. The assay can be described thus: In vitro inhibition of proliferation assay (WST-8), MDA-MB-468. It is filed as cell-based. The note with it: Data Set II, experiment Oct. 8, 2010; 72 hr; read-out: IC50 Values after 72 hr drug treatment, MDA-MB-468. On the procedure: as §1, §2, §5, §4
The next assay has as its system BT474. Nature of the assay: In vitro inhibition of proliferation assay (WST-8), BT474. Format: cell-based. As to conditions: 72 hr, read-out: IC50 Values after 72 hr drug treatment, BT474. On the procedure:
as §1, §2, §3, §4

The test system of another assay is HT29. Nature of the assay: In vitro inhibition of proliferation assay (WST-8), HT29. Format: cell-based. The note with it: Data Set II, experiment Sep. 24, 2010; 72 hr; read-out: IC50 Values after 72 hr drug treatment, HT29. How it is done:
as §1, §2, §5, §4

The test system of a further assay is NCI-N87. Nature of the assay: In vitro inhibition of proliferation assay (WST-8), NCI-N87. Format: cell-based. As to conditions: Data Set I, experiment Sep. 4, 2010; 72 hr; read-out: IC50 Values after 72 hr drug treatment, NCI-N87. How it is done:
as §1
(§6) At day 2, the test samples were added to the cells. The test samples were diluted in culture medium to a 9× stock concentration in Column 2 of a round-bottom 96-well plate. 3× serial dilutions were made from Column 2 to Column 11 with a multi-channel pipettor. 10 uL/well of the above samples was added in duplicate to the appropriate wells of the seeded plate. The total volume in the wells was about 90 uL/well. […]
as §4

The test system of the next assay is LS513. The assay can be described thus: In vitro inhibition of proliferation assay (WST-8), LS513. Format: cell-based. The note with it: Data Set I, experiment Sep. 4, 2010; 72 hr; read-out: IC50 Values after 72 hr drug treatment, LS513. How it is done:
as §1, §6, §4

The next assay deals with MDA-MB-175. Nature of the assay: In vitro inhibition of proliferation assay (WST-8), MDA-MB-175. The note with it: Data Set I, experiment Sep. 13, 2010. Format: cell-based. On the procedure: as §1, §6, §4
A further assay relates to ZR-75-30. Nature of the assay: In vitro inhibition of proliferation assay (WST-8), ZR-75-30. Format: cell-based. As to conditions: Data Set I, experiment Sep. 4, 2010; 72 hr; read-out: IC50 Values after 72 hr drug treatment, ZR-75-30. How it is done: as §1, §6, §4
[1] abbreviates: Data Set I, experiment Sep. 4, 2010.
The mark [2] stands for this setting: Data Set I, experiment Sep. 13, 2010.
Setting [3] is: Data Set II, experiment Oct. 8, 2010.

On to Dolastatin, for which the IC50 (in general, the concentration that gives 50% inhibition) in the assay on SKOV-3 (setting [1]) was 0.2 nM; in the assay on SKOV-3 (setting [2]), 0.1 nM; in the assay on SKOV-3 (setting [3]), 0.2 nM; with HCC1954 (setting [1]), 0.06 nM; in the assay with HCC1954 (setting [3]) it was 0.04 nM; in the assay on MDA-MB-468, less than 0.01 nM. Further, the concentration for half-maximal inhibition (IC50) in the assay on BT474 (setting [1]) is 0.1 nM; with BT474 (setting [2]) it was 0.1 nM; with BT474 (Data Set II, experiment Sep. 24, 2010), 2.5 nM; in the assay on HT29, 4 nM; with NCI-N87, more than 30 nM; in the assay with LS513, 0.2 nM. The IC50 with ZR-75-30 is more than 30 nM. The “IC50 Values after 72 hr drug treatment, MDA-MB-175” value in the assay on MDA-MB-175 is recorded as “no fit”.
